Experiments:
K-562 = assay: NCI 60 cell line panel screen (SRB); assay type: cell-based, human
BT-549 = assay: NCI 60 cell line panel screen (SRB); assay type: cell-based, human; details: for Log10LC50 / Log10TGI50: BT-549 (Breast Cancer); for Log10LC50: LC50: PG=−50; for Log10TGI50: TGI: PG=0; for Log10GI50: Breast Cancer, BT-549
MDA-MB-435 = assay: NCI 60 cell line panel screen (SRB); assay type: cell-based, human; details: for Log10GI50: Breast Cancer, MDA-MB-435; for Log10LC50 / Log10TGI50: MDA-MB-435 (Breast Cancer); for Log10LC50: LC50: PG=−50; for Log10TGI50: TGI: PG=0
SK-MEL-2 = assay: NCI 60 cell line panel screen (SRB); assay type: cell-based, human; details: for Log10GI50: Melanoma, SK-MEL-2; for Log10LC50: SK-MEL2 (Melanoma), LC50: PG=−50; for Log10TGI50: SK-MEL-2 (Melanoma), TGI: PG=0
CAKI-1 = assay: NCI 60 cell line panel screen (SRB); assay type: cell-based, human; details: for Log10LC50 / Log10TGI50: CAKI-1 (Renal Cancer); for Log10LC50: LC50: PG=−50; for Log10TGI50: TGI: PG=0; for Log10GI50: Renal Cancer, CAKI-1
UACC-257 = assay: NCI 60 cell line panel screen (SRB); assay type: cell-based, human; details: for Log10LC50 / Log10TGI50: UACC-257 (Melanoma); for Log10LC50: LC50: PG=−50; for Log10TGI50: TGI: PG=0
SNB-75 = assay: NCI 60 cell line panel screen (SRB); assay type: cell-based, human
NCI-H23 = assay: NCI 60 cell line panel screen (SRB); assay type: cell-based, human; details: for Log10LC50 / Log10TGI50: NCI-H23 (Non-Small Cell Lung Cancer); for Log10LC50: LC50: PG=−50; for Log10TGI50: TGI: PG=0; for Log10GI50: Non-Small Cell Lung Cancer, NCI-H23
PC-3 = assay: NCI 60 cell line panel screen (SRB); assay type: cell-based, human; details: for Log10LC50 / Log10TGI50: PC-3 (Prostate Cancer); for Log10LC50: LC50: PG=−50; for Log10TGI50: TGI: PG=0; for Log10GI50: Prostate Cancer, PC-3
MOLT-4 = test system: MOLT-4
Procedure: Growth Inhibition. […] The screening assay is performed on 96-well microtitre plates. Relatively high initial inoculation densities are used, in order to permit measurement of “time-zero” values and to enhance the screen's ability to detect and provide some differentiation between growth inhibition and cytotoxic response parameters. […] The inoculated microtitre plates are pre-incubated for 24 hours at 37° C. prior to drug additions. The five drug dilutions tested routinely range from 10^−4 to 10^−8 molar. Higher or lower concentration ranges may be selected on a non-routine basis if appropriate solubility and/or prior biological information or other screening data so dictate. Duplicate wells are prepared for all concentrations, (concentration is often denoted by placing brackets around a number); “time-zero” and “no drug” controls are also provided for each test. The minimum amount of compound required for a one-time evaluation in the routine screen can be calculated from the knowledge that each test requires a total of approximately 40 ml (0.04 liter) of cell culture medium containing the highest desired drug concentration. […] After a 48 hour incubation (37° C.) with the test compound, the cells are fixed in situ to the bottoms of the microtitre wells by addition of 50 μl of either 50% trichloroacetic acid (for adherent cell lines) or 80% trichloroacetic acid (for settled cell suspension lines), followed by incubation for 60 minutes at 4° C. The cellular protein in each well is assayed using a sulforhodamine B (SRB) stain procedure. Briefly, after discarding the supernatants, the microtitre plates are washed 5 times with deionized water and air-dried. […] Unbound SRB is removed by washing 5 times with 1% acetic acid. […] SRB is a bright pink anionic dye which, in dilute acetic acid, binds electrostatically to the basic amino acids of TCA-fixed cells. Cryopreserved master stocks of all the lines are maintained, and cultures used for screening are replaced from the master stock after no more than twenty passages in the screening laboratory. The cell line panel consists of 60 lines, organized into nine, disease-related subpanels including leukemia, non-small-cell lung cancer, colon, CNS, melanoma, ovarian, renal, prostate and breast cancers.
At this value the increase from time tzero, in the number or mass of cells in the test well is only 50% as much as the corresponding increase in the control well during this period of the experiment, see Table III. A drug effect of this intensity is interpreted as primary growth inhibition.
At this value the number or mass of cells in the well at the end of the experiment equals the number or mass of cells in the well at time tzero, see Table IV. A drug effect of this intensity is regarded as cytostasis.
At this value, the number or mass of cells in the test well at the end of the experiment is half that at time tzero, see Table V. This is interpreted as cytotoxicity.
Dose response curves, shown in the above mentioned Figures, are obtained by exposing various cancer cell lines to compounds having a known concentration ([log10M]), as discussed in detail above, and then plotting the percentage growth of each cell line for each concentration. […] Percentage growth is determined by dividing the number or mass of cells in the test well by the number or mass of cells in a control well. […] As discussed previously, the five drug dilutions routinely tested range from 10^−4 to […].

HOP-62 = assay: NCI 60 cell line panel screen (SRB); assay type: cell-based, human; details: for Log10LC50 / Log10TGI50: HOP-62 (Non-Small Cell Lung Cancer); for Log10LC50: LC50: PG=−50; for Log10TGI50: TGI: PG=0
OVCAR-8 = assay: NCI 60 cell line panel screen (SRB); assay type: cell-based, human; details: for Log10LC50: LC50: PG=−50; for Log10GI50: Ovarian Cancer, OVCAR-8
SK-MEL-28 = assay: NCI 60 cell line panel screen (SRB); assay type: cell-based, human; details: for Log10GI50: Melanoma, SK-MEL-28; for Log10LC50 / Log10TGI50: SK-MEL-28 (Melanoma); for Log10LC50: LC50: PG=−50; for Log10TGI50: TGI: PG=0
CCRF-CEM = assay: NCI 60 cell line panel screen (SRB); assay type: cell-based, human; details: for Log10LC50 / Log10TGI50: CCRF-CEM (Leukemia); for Log10LC50: LC50: PG=−50; for Log10TGI50: TGI: PG=0
RXF 393 = assay: NCI 60 cell line panel screen (SRB); assay type: cell-based, human; details: for Log10LC50 / Log10TGI50: RXF 393 (Renal Cancer); for Log10LC50: LC50: PG=−50; for Log10TGI50: TGI: PG=0; for Log10GI50: Renal Cancer, RXF 393
MDA-MB231/ATCC = assay: NCI 60 cell line panel screen (SRB); assay type: cell-based, human
RPMI-8226 = assay: NCI 60 cell line panel screen (SRB); assay type: cell-based, human

For `C[C@@H]1CC[C@H]2[C@@H](C)C(CC(O)(CC3OC4O[C@]5(C)CC[C@H]6[C@H](C)CC[C@@H]([C@H]3C)C46OO5)c3ccc(C(=O)O)cc3)OC3O[C@]4(C)CCC1C32OO4` (some centres unmarked) [Compound 11b, bis-trioxane tertiary alcohol benzoic acid], the Log10LC50 (K-562; K-562 (Leukemia), LC50: PG=−50) was greater than −4.30 log10M, the Log10TGI50 (K-562; K-562 (Leukemia), TGI: PG=0) was greater than −4.30 log10M and the Log10GI50 (K-562; Leukemia, K-562) was less than −8.30. The Log10LC50 (BT-549) was greater than −4.30 log10M, the Log10TGI50 (BT-549) was −5.32 log10M and the Log10GI50 (BT-549) was −5.82. The Log10GI50 (MDA-MB-435) was −8.16, the Log10LC50 (MDA-MB-435) was greater than −4.30 log10M and the Log10TGI50 (MDA-MB-435) was greater than −4.30 log10M. For the same molecule, the Log10GI50 (SK-MEL-2) was −6.43, the Log10LC50 (SK-MEL-2) was greater than −4.30 log10M and the Log10TGI50 (SK-MEL-2) was greater than −4.30 log10M. The Log10LC50 (CAKI-1) was −4.44 log10M, the Log10TGI50 (CAKI-1) was −6.91 log10M and the Log10GI50 (CAKI-1) was −7.74. The Log10LC50 (UACC-257) was greater than −4.30 log10M, the Log10TGI50 (UACC-257) was greater than −4.30 log10M and the Log10GI50 (SNB-75; CNS Cancer, SNB-75) was −7.40. It also gave a Log10LC50 (SNB-75; SNB-75 (CNS Cancer), LC50: PG=−50) greater than −4.30 log10M, a Log10TGI50 (SNB-75; SNB-75 (CNS Cancer), TGI: PG=0) greater than −4.30 log10M and a Log10LC50 (NCI-H23) greater than −4.30 log10M. For the same molecule, the Log10TGI50 (NCI-H23) was −4.63 log10M, the Log10GI50 (NCI-H23) was −8.19 and the Log10LC50 (PC-3) was greater than −4.30 log10M. For the same molecule, the Log10TGI50 (PC-3) was −5.75 log10M, the Log10GI50 (PC-3) was less than −8.30 and the Log10GI50 (MOLT-4; Leukemia, MOLT-4) was less than −8.30. It also gave a Log10LC50 (MOLT-4; MOLT-4 (Leukemia), LC50: PG=−50) greater than −4.30 log10M, a Log10TGI50 (MOLT-4; MOLT-4 (Leukemia), TGI: PG=0) greater than −4.30 log10M and a Log10LC50 (HOP-62) greater than −4.30 log10M. It also gave a Log10TGI50 (HOP-62) greater than −4.30 log10M, a Log10GI50 (HOP-62; Non-Small Cell Lung Cancer, HOP-62) of −6.96 and a Log10LC50 (OVCAR-8; OVCAR-8 (Ovarian Cancer)) greater than −4.30 log10M. For the same molecule, the Log10TGI50 (OVCAR-8; OVCAR-8 (Ovarian Cancer), TGI: PG=0) was greater than −4.30 log10M, the Log10GI50 (OVCAR-8) was −5.26 and the Log10GI50 (SK-MEL-28) was −6.40. The Log10LC50 (SK-MEL-28) was greater than −4.30 log10M, the Log10TGI50 (SK-MEL-28) was greater than −4.30 log10M and the Log10LC50 (CCRF-CEM) was greater than −4.30 log10M. The Log10TGI50 (CCRF-CEM) was greater than −4.30 log10M, the Log10GI50 (CCRF-CEM; Leukemia, CCRF-CEM) was −8.07 and the Log10LC50 (RXF 393) was greater than −4.30 log10M. For the same molecule, the Log10TGI50 (RXF 393) was −7.60 log10M and the Log10GI50 (RXF 393) was less than −8.30.
For `CC1CCC2C(C)C(CC(COC(=O)c3cc[n+]([O-])cc3)CC3OC4OC5(C)CCC6C(C)CCC(C3C)C46OO5)OC3OC4(C)CCC1C32OO4` (centres unmarked) [Compound 13, bis-trioxane primary alcohol isonicotinate N-oxide], the Log10LC50 (BT-549) was −4.61 log10M, the Log10TGI50 (BT-549) was −5.07 log10M and the Log10GI50 (BT-549) was less than −8.30. It also gave a Log10GI50 (MDA-MB-435) of −7.62, a Log10LC50 (MDA-MB-435) of −4.46 log10M and a Log10TGI50 (MDA-MB-435) of −4.94 log10M. The Log10GI50 (SK-MEL-2) was −5.12, the Log10LC50 (SK-MEL-2) was greater than −4.30 log10M and the Log10TGI50 (SK-MEL-2) was greater than −4.30 log10M. It also gave a Log10LC50 (CAKI-1) of −4.66 log10M, a Log10TGI50 (CAKI-1) of −5.11 log10M and a Log10GI50 (CAKI-1) of −7.36. The Log10GI50 (UACC-257; Melanoma, UACC-257) was −5.15, the Log10LC50 (UACC-257) was greater than −4.30 log10M and the Log10TGI50 (UACC-257) was −4.65 log10M. The Log10GI50 (MDA-MB231/ATCC; Breast Cancer, MDA-MB231/ATCC) was −7.64, the Log10LC50 (MDA-MB231/ATCC; MDA-MB231/ATCC (Breast Cancer), LC50: PG=−50) was −4.77 log10M and the Log10TGI50 (MDA-MB231/ATCC; MDA-MB231/ATCC (Breast Cancer), TGI: PG=0) was −6.32 log10M. For the same molecule, the Log10LC50 (NCI-H23) was −4.62 log10M, the Log10TGI50 (NCI-H23) was −5.17 log10M and the Log10GI50 (NCI-H23) was less than −8.30. The Log10LC50 (PC-3) was −4.63 log10M, the Log10TGI50 (PC-3) was −5.11 log10M and the Log10GI50 (PC-3) was less than −8.30. It also gave a Log10LC50 (HOP-62) of −4.54 log10M, a Log10TGI50 (HOP-62) of −4.91 log10M and a Log10LC50 (OVCAR-8; OVCAR-8 (Ovarian Cancer)) greater than −4.30 log10M. It also gave a Log10GI50 (OVCAR-8) of −7.69, a Log10GI50 (SK-MEL-28) of −5.13 and a Log10LC50 (SK-MEL-28) of −4.34 log10M. For the same molecule, the Log10TGI50 (SK-MEL-28) was −4.73 log10M, the Log10LC50 (CCRF-CEM) was greater than −4.30 log10M and the Log10TGI50 (CCRF-CEM) was greater than −4.30 log10M. It also gave a Log10GI50 (RPMI-8226; Leukemia, RPMI-8226) of less than −8.30, a Log10LC50 (RPMI-8226; RPMI-8226 (Leukemia), LC50: PG=−50) greater than −4.30 log10M and a Log10TGI50 (RPMI-8226; RPMI-8226 (Leukemia), TGI: PG=0) greater than −4.30 log10M. It also gave a Log10LC50 (RXF 393) greater than −4.30 log10M, a Log10TGI50 (RXF 393) of −4.69 log10M and a Log10GI50 (RXF 393) of −5.20.
